From patent publication US20190175557A1, “COMPOUNDS USEFUL FOR DECREASING INTERFERON LEVEL” (priority 2016, published 2019)

How the values were obtained:
[1] = system: HIV-stimulated pDC; assay: IFN-α / type I IFN production by HIV-stimulated purified pDC (ELISA); format: cell-based, human
[2] = system: HIV-stimulated pDC; assay: Activation markers and cytokine mRNA in HIV-stimulated pDC (RT-qPCR, flow cytometry); format: cell-based, human
[3] = system: flu-exposed human PBMC; format: cell-based; conditions: cells pre-treated before Flu exposure, human PBMC
[4] = system: NK cells activated by K562 cells; assay: IFN-γ, TNF-α and CD107a expression by NK cells activated by K562 cells (flow cytometry); format: cell-based; conditions: treated 1 hour, then activated by K562 cells
[5] = system: collagen-induced arthritis in DBA1/J mice; assay: Therapeutic collagen-induced arthritis model in DBA1/J mice; format: in vivo, mouse; conditions: for average AI (Arthritic Index): maximum AI=16
Method: 80 DBA1/J mice (male, 7-8 weeks) was received and placed in quarantine for 3 days with daily inspections. Ear tag mice for individual identification.
Individual mouse weights were recorded. Hind paw thickness were recorded by digital caliper. 80 mice subcutaneous were injected with collagen/CFA emulsion (0.05 ml/mouse; 100 μg/mouse collagens in CFA) using a 1 ml syringe fitted with a 25G needle. Mice returned to cages.
80 mice were boosted with collagen/ICFA emulsion. Then their individual weights were recorded.
Mice were scored for signs of arthritis:
7) Calculate Arthritic Index (AI) by addition of individual paw scores and record.
Mice with an AI score within a range of 2-6 were selected for assignment to groups for therapeutic dosing as in Table 4.
Begin intraperitoneal (IP) dosing once daily (QD) according to Table 4.
The compounds clobenpropit (CB) and IT1t were tested. CB and IT1t were stored at 4° C. […] These compounds were doses 7 days per week (Saturday and Sunday included) daily for 14 days.
Mice were weighed, scored for signs or arthritis, and hind paw thickness is measured by digital caliper three-times weekly (Monday, Wednesday and Friday). Any adverse reactions to treatment were recorded.
Termination: AI score were recorded for each limb. The paw thickness of the hind limbs is measured with digital caliper. Mice were anesthetized and exsanguinated into pre-chilled EDTA-tubes.
2) Plasma was assayed by ELISA for IL-1β, IL-6, TRAIL. Then, all limbs were collected.

[6] = system: pristane-induced SLE in Balb/c mice; assay: Pristane-induced systemic lupus erythematosus (SLE) model in Balb/c mice; format: in vivo, mouse; conditions: 3, 10, 30 mg/kg IP QD
Method: Receive and quarantine (SOP 560) 70 female Balb/C (20-25 g) mice and house in filter-topped cages supplied with autoclaved bedding.
The animals are weighed, ear tagged for individual identification and randomly assigned to 8 treatment groups of 8 animals each and two groups of 3 animals (for pre-tolerance at 30 mg/kg of survival).
The test items compounds clobenpropit (CB) and IT1t are stored at 4° C.
Mouse weights are recorded twice a week, and daily observations for clinical signs.
Collected sera are stored at −80° C. for measurements of autoantibody on weeks 4, 8 and 10. (Predose will kept at −80° C. for potential use). Anti-dsDNA level is a standard screening readout for identifying efficacy of test compounds in a SLE model.
Measurements: weeks 4, 8, 10: (1) autoantibody (anti-dsDNA), collagen and cytokines TNFα, IL-6 and TRAIL by ELISA and (2) ANA antibody by IFA.

[7] = system: human primary PBMC
[8] = biological target: T1, CXCR4 (Homo sapiens, UniProt P61073); conditions: Jurkat cells, 1 mM, 4° C. for 30 min
[9] = biological target: T1, CXCR4
[10] = system: pDC; assay: Cytotoxicity of compounds on cultured pDC; conditions: 10 μM
[11] = 10 mg/kg IP once daily, at termination
[12] = 30 mg/kg IP once daily, at termination

T1 sequence (P61073 whole entry): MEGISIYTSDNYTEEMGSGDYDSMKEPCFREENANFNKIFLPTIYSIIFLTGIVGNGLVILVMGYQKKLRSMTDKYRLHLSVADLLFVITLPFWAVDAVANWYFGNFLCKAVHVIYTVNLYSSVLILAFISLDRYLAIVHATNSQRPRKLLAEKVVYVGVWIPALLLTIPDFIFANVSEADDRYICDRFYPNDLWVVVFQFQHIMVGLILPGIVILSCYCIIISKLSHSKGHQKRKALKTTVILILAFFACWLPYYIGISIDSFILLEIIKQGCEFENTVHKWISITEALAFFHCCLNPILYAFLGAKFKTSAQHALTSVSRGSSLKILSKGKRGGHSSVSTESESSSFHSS

Q: For `NC(=NCc1ccc(Cl)cc1)SCCCc1cnc[nH]1` [Clobenpropit, clobenpropit], which “IFN-α production kinetics by HIV-stimulated pDC” value ([1]; after 9 h of incubation) is on record?
A: Its value is “inhibited”.

Q: What about the “inhibitory effect on pDC activation / IFN-α production by HIV-1” value ([1]; purified pDC, 10 μM) of the same compound?
A: Its value is “stronger inhibitory effect than histamine”.

Q: And the “reduction of levels of IFN-α secreted following HIV stimulation” value ([1]; purified pDC, 10 μM, ELISA)?
A: The value was “approximately 90%”.

Q: What about the “iNOS or IL-15 gene expression” value ([2]; HIV-1-stimulated pDC, RT-qPCR) of the same compound?
A: The value was “neither CB nor FFN-511 affected”.

Q: What about the “transcription of virus-induced genes (TRAIL, IFNs, IL6, IL8, IL10, CXCL10, ISG56) induced in pDC by HIV-1” value ([2]; RT-qPCR profiling, normalized to RPL13A) of the same compound?
A: The value was “dramatically inhibited”.

Q: What about the “IFN-α/β and IFN-λ2/3 mRNA levels” value [3] of the same compound?
A: Its value is “significantly reduced”.

Q: What about the “IFN-γ, TNF-α and CD107a expression by NK cells” value [4] of the same compound?
A: The value was “decrease”.

Q: And the “reduction in terminal plasma concentration of IL-1β” value (from here on “reduction … of IL-1β”) ([5]; 3 mg/kg IP once daily)?
A: Its value is 64%.

Q: And the “reduction in terminal plasma concentration of IL-6” value (shortened to “reduction … of IL-6”) ([5]; 3 mg/kg IP once daily)?
A: The value was 49%.

Q: And the “reduction in terminal plasma concentration of TRAIL” value (shortened to “reduction … of TRAIL”) ([5]; 3 mg/kg IP once daily)?
A: Its value is “had also an effect”.

Q: And the “inhibition of disease severity” value ([5]; 3 mg/kg IP once daily, Day 28-42, at termination (Day 42))?
A: The value was 25%.

Q: And the “average AI (Arthritic Index)” value ([5]; 3 mg/kg IP once daily, at termination (Day 42))?
A: The value was 9.8.

Q: And the “reduction … of IL-1β” value ([5]; 10 mg/kg IP once daily)?
A: Its value is 75%.

Q: What about the “reduction … of IL-6” value ([5]; 10 mg/kg IP once daily) of the same compound?
A: Its value is 80%.

Q: And the “reduction … of TRAIL” value ([5]; 10 mg/kg IP once daily)?
A: Its value is “had also an effect”.

Q: And the “reduction in disease severity” value [5, 11]?
A: Its value is 66%.

Q: What about the “average AI (Arthritic Index)” value [5, 11] of the same compound?
A: Its value is 4.4.

Q: And the “reduction … of IL-1β” value ([5]; 30 mg/kg IP once daily)?
A: The value was 82%.

Q: What about the “reduction … of IL-6” value ([5]; 30 mg/kg IP once daily) of the same compound?
A: Its value is 82%.

Q: And the “reduction … of TRAIL” value ([5]; 30 mg/kg IP once daily)?
A: The value was “significant reduction”.

Q: What about the “reduction in disease severity” value [5, 12] of the same compound?
A: The value was 87%.

Q: What about the “average AI (Arthritic Index)” value [5, 12] of the same compound?
A: The value was 1.8.

Q: What about the “disease progression over the dose range” value ([5]; 3, 10 and 30 mg/kg daily intraperitoneal injection) of the same compound?
A: Its value is “dose-dependent inhibition”.

Q: And the “symptoms of pristane-Induced Systemic Lupus Erythematosus” value [6]?
A: Its value is “reduce symptoms”.

Q: What about the “body weight during the study” value ([6]; compared to dose started date) of the same compound?
A: Its value is “no loss of body weight”.

Q: And the ds-DNA level ([6]; compared to group 1 (vehicle))?
A: The ds-DNA level was “inhibition”.

Q: What about the “Therapeutic index (Ratio TC50/EC50)” value [7] of the same compound?
A: The value was 17.4.

Q: What about the “binding of the CXCR4 antibody 12G5 on T cells” value [8] of the same compound?
A: Its value is “inhibited”.

Q: What about the “effect of CXCR4 silencing on the inhibitory effect” value ([9]; pDC activated by a CCR5-tropic (R5) HIV-1 and Flu) of the same compound?
A: Its value is “blocked”.

Q: And the “effect of CXCR4 gene silencing on the inhibitory effect on type I IFN and TRAIL” value ([9]; pDC stimulated by CXCR4-tropic HIV-1)?
A: The value was “suppressed”.

Q: What about the “cytotoxicity on purified pDC” value [10] of the same compound?
A: Its value is “no cytotoxic effect”.
